Experimental findings from US9593140B2, “Antibacterial tylosin derivatives and methods for their preparation” (Bayer Intellectual Property GmbH, priority 2011, dated 2017) are described below.

Usually zone of inhibition stands for the size of the clear area around the sample on an inoculated plate.

Each structure is given as a SMILES string.

The test relates to Mannhemia hemolytica KB345. Nature of the test: Paper disc assay, M. hemolytica KB345 (Tilmicosin-sensitivity strain). Format: cell-based. Conditions: 24 h, Table 2; for zone of inhibition at 1 mg/disc: 1 mg/6 mm disk; for zone of inhibition at 3 mg/disc: 3 mg/6 mm disk; for zone of inhibition at 10 mg/disc: 10 mg/6 mm disk; for zone of inhibition at 30 mg/disc: 30 mg/6 mm disk; for zone of inhibition at 100 mg/disc: 100 mg/6 mm disk. Here is the method:
(1) Antibacterial Activities Against Mannheimia and Pasteurella were Determined by the Following Steps:
1) M. hemolytica KB345 (Tilmicosin-sensitivity strain) and M. hemolytica KB346 (Tilmicosin-low sensitivity strain) were provided. KB 345 strain stored at −80° C. was seeded to BHIB agar medium (10 mL) by using Microbank beads (Pro-Lab) and platinum nail. After statically incubating the KB 345 strain for 24 hours at 37° C., it was seeded to maintaining slant BHIB agar medium (7 mL) by using platinum loop, further statically incubated for 24 hours at 37° C. to obtain slant. One platinum loop of KB 345 strain stored at the slant was inoculated into a large test tube charged with BHIB liquid medium (10 mL) and then incubated for 24 hours at 37° C. with shaking.
2) A paper disc (ADVANTEC, Φ:6 mm) was impregnated with a solution of test compound and dried under reduced pressure.
3) To a melted BHIB agar medium was inoculated 1% of the broth obtained from step 1) above to prepare a test plate. After the medium set, the paper disc prepared in step 2) above was put on the plate and it was incubated at 37° C.
4) After one day, the inhibition zone diameter and clarity (A to E) were determined.

`CCCNC[C@]1(O)[C@H](C)O[C@@H](O[C@H]2[C@H](C)[C@@H](O[C@@H]3O[C@H](C)C[C@H](N(C)C)[C@H]3O)[C@](C)(O)C[C@@H](C)CN[C@H](C)[C@@H](O)[C@](C)(O)[C@@H](CC)OC(=O)[C@@H]2C)C[C@@]1(C)OC` [Tulathromycin, reference compound] had a zone of inhibition at 1 mg/disc of 12.5 mm, a zone of inhibition at 3 mg/disc of 16 mm and a zone of inhibition at 10 mg/disc of 18 mm.

`CC[C@H]1OC(=O)C[C@@H](O)[C@H](C)[C@@H](O[C@@H]2O[C@H](C)[C@@H](O[C@H]3C[C@@](C)(O)[C@@H](O)[C@H](C)O3)[C@H](N(C)C)[C@H]2O)[C@@H](CC=O)C[C@@H](C)C(=O)/C=C/C(C)=C/[C@@H]1CO[C@@H]1O[C@H](C)[C@@H](O)[C@@H](OC)[C@H]1OC` [Tylosin] yielded a zone of inhibition at 30 mg/disc of 10.5 mm and a zone of inhibition at 100 mg/disc of 11 mm.

`CC[C@H]1OC(=O)C[C@@H](O)[C@H](C)[C@@H](O[C@@H]2OC(C)[C@@H](O)C(N(C)C)C2O)[C@@H](CCn2cc(-c3cccnc3)nn2)C[C@@H](C)C(=O)/C=C/C(C)=C/[C@@H]1CO[C@@H]1OC(C)[C@@H](O)C(OC)C1OC` (stereo partly drawn) [YT16, 20-(4-(pyridine-3-yl)-1H-1,2,3-triazol-1-yl)-20-deoxodesmycosin] yielded a zone of inhibition at 3 mg/disc of 11.5 mm, a zone of inhibition at 10 mg/disc of 14.5 mm, a zone of inhibition at 30 mg/disc of 16.5 mm and a zone of inhibition at 100 mg/disc of 19 mm.

Regarding `CC[C@H]1OC(=O)C[C@@H](O)[C@H](C)[C@@H](O[C@@H]2OC(C)[C@@H](O)C(N(C)C)C2O)[C@@H](CCn2cc(-c3cccc(N)c3)nn2)C[C@@H](C)C(=O)/C=C/C(C)=C/[C@@H]1CO[C@@H]1OC(C)[C@@H](O)C(OC)C1OC` (stereo partly drawn) [YT17], the zone of inhibition at 3 mg/disc came to 12 mm, the zone of inhibition at 10 mg/disc came out at 14 mm, the zone of inhibition at 30 mg/disc is 18 mm and the zone of inhibition at 100 mg/disc was 19.5 mm.

`CC[C@H]1OC(=O)C[C@@H](O)[C@H](C)[C@@H](O[C@@H]2OC(C)[C@@H](O)C(N(C)C)C2O)[C@@H](CCn2cc(-c3ccc(N)cc3)nn2)C[C@@H](C)C(=O)/C=C/C(C)=C/[C@@H]1CO[C@@H]1OC(C)[C@@H](O)C(OC)C1OC` (stereo partly drawn) [YT18] returned a zone of inhibition at 3 mg/disc of 11 mm, a zone of inhibition at 10 mg/disc of 14.5 mm, a zone of inhibition at 30 mg/disc of 17 mm and a zone of inhibition at 100 mg/disc of 19.5 mm.

On to `CCCCc1cn(CC[C@H]2C[C@@H](C)C(=O)/C=C/C(C)=C/[C@H](CO[C@@H]3OC(C)[C@@H](O)C(OC)C3OC)[C@@H](CC)OC(=O)C[C@@H](O)[C@H](C)[C@H]2O[C@@H]2OC(C)[C@@H](O)C(N(C)C)C2O)nn1` (stereo partly drawn) [YT20, 20-(4-butyl-1H-1,2,3-triazol-1-yl)-20-deoxodesmycosin], for which the zone of inhibition at 1 mg/disc amounted to 9 mm, the zone of inhibition at 3 mg/disc was 11.5 mm, the zone of inhibition at 10 mg/disc was 16 mm and the zone of inhibition at 30 mg/disc was 17.5 mm. The zone of inhibition at 100 mg/disc is 20 mm.

As to `CC[C@H]1OC(=O)C[C@@H](O)[C@H](C)[C@@H](O[C@@H]2OC(C)[C@@H](O)C(N(C)C)C2O)[C@@H](CCn2cc(-c3ccc(-c4ccccc4)cc3)nn2)C[C@@H](C)C(=O)/C=C/C(C)=C/[C@@H]1CO[C@@H]1OC(C)[C@@H](O)C(OC)C1OC` (stereo partly drawn) [YT21], the zone of inhibition at 1 mg/disc came to 11.5 mm, the zone of inhibition at 3 mg/disc came to 13.5 mm, the zone of inhibition at 10 mg/disc is 15.5 mm and the zone of inhibition at 30 mg/disc came to 18 mm. The zone of inhibition at 100 mg/disc turned out to be 19 mm.

The molecule `CCOC(=O)c1cn(CC[C@H]2C[C@@H](C)C(=O)/C=C/C(C)=C/[C@H](CO[C@@H]3OC(C)[C@@H](O)C(OC)C3OC)[C@@H](CC)OC(=O)C[C@@H](O)[C@H](C)[C@H]2O[C@@H]2OC(C)[C@@H](O)C(N(C)C)C2O)nn1` (stereo partly drawn) [YT22, 20-(4-ethoxycarbonyl-1H-1,2,3-triazol-1-yl)-20-deoxodesmycosin] returned a zone of inhibition at 1 mg/disc of 7.5 mm, a zone of inhibition at 3 mg/disc of 11.5 mm, a zone of inhibition at 10 mg/disc of 14.5 mm and a zone of inhibition at 30 mg/disc of 18 mm. The molecule further gave a zone of inhibition at 100 mg/disc of 21 mm.

`CC[C@H]1OC(=O)C[C@@H](O)[C@H](C)[C@@H](O[C@@H]2OC(C)[C@@H](O)C(N(C)C)C2O)[C@@H](CCn2cc(-c3ccc(Oc4ccccc4)cc3)nn2)C[C@@H](C)C(=O)/C=C/C(C)=C/[C@@H]1CO[C@@H]1OC(C)[C@@H](O)C(OC)C1OC` (stereo partly drawn) [YT24, 20-(4-(4-phenoxyphenyl)-1H-1,2,3-triazol-1-yl)-20-deoxodesmycosin]: the zone of inhibition at 1 mg/disc came to 8.5 mm, the zone of inhibition at 3 mg/disc was determined as 12 mm, the zone of inhibition at 10 mg/disc stood at 14.5 mm and the zone of inhibition at 30 mg/disc turned out to be 17 mm. This molecule came in with a zone of inhibition at 100 mg/disc of 18 mm.

For `CC[C@H]1OC(=O)C[C@@H](O)[C@H](C)[C@@H](O[C@@H]2OC(C)[C@@H](O)C(N(C)C)C2O)[C@@H](CCn2cc(-c3cc(C)c(C)cc3C)nn2)C[C@@H](C)C(=O)/C=C/C(C)=C/[C@@H]1CO[C@@H]1OC(C)[C@@H](O)C(OC)C1OC` (stereo partly drawn) [YT25, 20-(4-(2,4,5-trimethylphenyl)-1H-1,2,3-triazol-1-yl)-20-deoxodesmycosin], the zone of inhibition at 1 mg/disc was 8 mm, the zone of inhibition at 3 mg/disc stood at 12 mm, the zone of inhibition at 10 mg/disc came to 14 mm and the zone of inhibition at 30 mg/disc is 17 mm. The molecule further displayed a zone of inhibition at 100 mg/disc of 18.5 mm.

In turn, `CC[C@H]1OC(=O)C[C@@H](O)[C@H](C)[C@@H](O[C@@H]2OC(C)[C@@H](O)C(N(C)C)C2O)[C@@H](CCn2cc(-c3ccc(C(C)(C)C)cc3)nn2)C[C@@H](C)C(=O)/C=C/C(C)=C/[C@@H]1CO[C@@H]1OC(C)[C@@H](O)C(OC)C1OC` (stereo partly drawn) [YT26, 20-(4-(4-t-butylphenyl)-1H-1,2,3-triazol-1-yl)-20-deoxodesmycosin] returned a zone of inhibition at 3 mg/disc of 9 mm, a zone of inhibition at 10 mg/disc of 11.5 mm, a zone of inhibition at 30 mg/disc of 14 mm and a zone of inhibition at 100 mg/disc of 16 mm.

`CCCCCOc1ccc(-c2cn(CC[C@H]3C[C@@H](C)C(=O)/C=C/C(C)=C/[C@H](CO[C@@H]4OC(C)[C@@H](O)C(OC)C4OC)[C@@H](CC)OC(=O)C[C@@H](O)[C@H](C)[C@H]3O[C@@H]3OC(C)[C@@H](O)C(N(C)C)C3O)nn2)cc1` (stereo partly drawn) [YT27, 20-(4-(4-pentyloxyphenyl)-1H-1,2,3-triazol-1-yl)-20-deoxodesmycosin] returned a zone of inhibition at 3 mg/disc of 9 mm, a zone of inhibition at 10 mg/disc of 11 mm, a zone of inhibition at 30 mg/disc of 13 mm and a zone of inhibition at 100 mg/disc of 16 mm.

`CC[C@H]1OC(=O)C[C@@H](O)[C@H](C)[C@@H](O[C@@H]2OC(C)[C@@H](O)C(N(C)C)C2O)[C@@H](CCn2cc(Cn3nnc4ccccc43)nn2)C[C@@H](C)C(=O)/C=C/C(C)=C/[C@@H]1CO[C@@H]1OC(C)[C@@H](O)C(OC)C1OC` (stereo partly drawn) [YT28, 20-(4-(1-methyl-1H-benzotriazole)-1H-1,2,3-triazol-1-yl)-20-deoxodesmycosin] registered a zone of inhibition at 3 mg/disc of 11 mm, a zone of inhibition at 10 mg/disc of 13 mm, a zone of inhibition at 30 mg/disc of 16 mm and a zone of inhibition at 100 mg/disc of 19 mm.

On to `CC[C@H]1OC(=O)C[C@@H](O)[C@H](C)[C@@H](O[C@@H]2OC(C)[C@@H](O)C(N(C)C)C2O)[C@@H](CCn2cc(CNC)nn2)C[C@@H](C)C(=O)/C=C/C(C)=C/[C@@H]1CO[C@@H]1OC(C)[C@@H](O)C(OC)C1OC` (stereo partly drawn) [YT30, 20-(4-(N-methyl-methylamine)-1H-1,2,3-triazol-1-yl)-20-deoxodesmycosin], for which the zone of inhibition at 100 mg/disc stood at 10 mm.

`CC[C@H]1OC(=O)C[C@@H](O)[C@H](C)[C@@H](O[C@@H]2OC(C)[C@@H](O)C(N(C)C)C2O)[C@@H](CCn2cc(C(C)(C)O)nn2)C[C@@H](C)C(=O)/C=C/C(C)=C/[C@@H]1CO[C@@H]1OC(C)[C@@H](O)C(OC)C1OC` (stereo partly drawn) [YT32, 20-(4-(1-methyl-1-hydroxylethyl)-1H-1,2,3-triazol-1-yl)-20-deoxodesmycosin] returned a zone of inhibition at 10 mg/disc of 9 mm, a zone of inhibition at 30 mg/disc of 14 mm and a zone of inhibition at 100 mg/disc of 16 mm.

For the molecule `CC[C@H]1OC(=O)C[C@@H](O)[C@H](C)[C@@H](O[C@@H]2OC(C)[C@@H](O)C(N(C)C)C2O)[C@@H](CCn2cc(CC(C)C)nn2)C[C@@H](C)C(=O)/C=C/C(C)=C/[C@@H]1CO[C@@H]1OC(C)[C@@H](O)C(OC)C1OC` (stereo partly drawn) [YT33, 20-(4-(2-methyl-propyl)-1H-1,2,3-triazol-1-yl)-20-deoxodesmycosin], the zone of inhibition at 3 mg/disc turned out to be 13 mm, the zone of inhibition at 10 mg/disc amounted to 16 mm, the zone of inhibition at 30 mg/disc was 17 mm and the zone of inhibition at 100 mg/disc was 20 mm.

The molecule `CCCCCCCCCc1cn(CC[C@H]2C[C@@H](C)C(=O)/C=C/C(C)=C/[C@H](CO[C@@H]3OC(C)[C@@H](O)C(OC)C3OC)[C@@H](CC)OC(=O)C[C@@H](O)[C@H](C)[C@H]2O[C@@H]2OC(C)[C@@H](O)C(N(C)C)C2O)nn1` (stereo partly drawn) [YT34, 20-(4-nonyl-1H-1,2,3-triazol-1-yl)-20-deoxodesmycosin] had a zone of inhibition at 3 mg/disc of 11 mm, a zone of inhibition at 10 mg/disc of 13 mm, a zone of inhibition at 30 mg/disc of 14 mm and a zone of inhibition at 100 mg/disc of 15 mm.
